{"source": "ChEMBL document CHEMBL1124164", "about": "“Synthesis and estrogen receptor selectivity of 1,1-bis(4-hydroxyphenyl)-2-(p-halophenyl)ethylenes” (J Med Chem, 1988)", "key": {"[1]": {"biological_target": "T1, Estrogen receptor (Rattus norvegicus) (UniProt P06211+Q62986)"}, "[2]": {"biological_target": "T1, Estrogen receptor (Rattus norvegicus)", "remark": "listed apart in the source", "description": "Non specific binding to estrogen receptor in rat uterine cytosol(+/-SD)"}, "[3]": {"biological_target": "T1, Estrogen receptor (Rattus norvegicus)", "remark": "listed apart in the source", "description": "Specific binding to estrogen receptor in rat uterine cytosol(+/-SD)"}, "Estrogen receptor [4]": {"biological_target": "T2, Estrogen receptor (Rattus norvegicus, UniProt P06211+Q62986)", "description": "In vitro displacement of 3 nM [3H]4-hydroxytamoxifen from estrogen receptor of rat uterine cystol"}, "Rattus norvegicus [5]": {"tested_on": "Rattus norvegicus", "assay": "Distribution of radiolabeled compound in liver of rat 8 hr after ip administration of dose; fmol equivalents per 100 mg", "format": "ADME, organism-based", "conditions": "in vivo"}, "Rattus norvegicus [6]": {"tested_on": "Rattus norvegicus", "assay": "Distribution of radiolabeled compound in uterus of rat 4 hr after ip administration of dose; fmol equivalents per 100 mg", "format": "ADME, organism-based", "conditions": "in vivo"}, "Rattus norvegicus [7]": {"species_on_record": "Rattus norvegicus", "assay": "Effect of Beta Glucuronidase on recovery of 3H associated with compound from rat intestinal contents", "format": "ADME, organism-based", "conditions": "in vivo"}, "Rattus norvegicus [8]": {"tested_on": "Rattus norvegicus", "assay": "Distribution of radiolabeled compound in uterus of rat 1 hr after ip administration of dose and excess 8 microg of estradiol; fmol equivalents per 100 mg", "format": "ADME, organism-based", "conditions": "in vivo"}, "Rattus norvegicus [9]": {"species_on_record": "Rattus norvegicus", "assay": "Effect of Beta Glucuronidase on recovery of 3H associated with compound from rat plasma", "format": "ADME, organism-based"}, "[10]": {"biological_target": "T1, Estrogen receptor (Rattus norvegicus)", "conditions": "Uterus, Cytosol", "description": "Non specific binding to estrogen receptor in rat uterine cytosol using unlabeled ligand"}, "Rattus norvegicus [11]": {"tested_on": "Rattus norvegicus", "assay": "Distribution of radiolabeled compound in intestinal contents of rat 1 hr after ip administration of dose and excess 8 microg of estradiol; fmol equivalents per 100 mg", "format": "ADME, organism-based", "conditions": "in vivo"}, "Rattus norvegicus [12]": {"species_on_record": "Rattus norvegicus", "assay": "Effect of Beta Glucuronidase on recovery of 3H associated with compound from rat liver", "format": "ADME, organism-based", "conditions": "in vivo"}, "Estrogen receptor [13]": {"biological_target": "T2, Estrogen receptor", "assay": "In vitro displacement of [3H]estradiol from estrogen receptor of rat uterine cystol", "format": "protein assay"}, "[14]": {"biological_target": "T1, Estrogen receptor (Rattus norvegicus)", "assay": "Ratio of specific binding to non-specific binding at rat estrogen receptor", "format": "protein assay"}, "Rattus norvegicus [15]": {"tested_on": "Rattus norvegicus", "assay": "Distribution of radiolabeled compound in intestinal contents of rat 1 hr after ip administration of dose; fmol equivalents per 100 mg", "format": "ADME, organism-based", "conditions": "in vivo"}, "Rattus norvegicus [16]": {"tested_on": "Rattus norvegicus", "assay": "Distribution of radiolabeled compound in plasma of rat 1 hr after ip administration of dose", "format": "ADME, organism-based", "conditions": "in vivo"}, "Rattus norvegicus [17]": {"species_on_record": "Rattus norvegicus", "assay": "Relative recovery of 3H associated with compound from rat liver", "format": "ADME, organism-based", "conditions": "in vivo"}, "Rattus norvegicus [18]": {"tested_on": "Rattus norvegicus", "assay": "Distribution of radiolabeled compound in intestinal contents of rat 1 hr after iv administration of dose; fmol equivalents per 100 mg", "format": "ADME, organism-based", "conditions": "in vivo"}, "[19]": {"biological_target": "T1, Estrogen receptor (Rattus norvegicus)", "conditions": "Uterus, Cytosol", "remark": "listed apart in the source"}, "Rattus norvegicus [20]": {"tested_on": "Rattus norvegicus", "assay": "Distribution of radiolabeled compound in plasma of rat 1 hr after ip administration of dose and excess 8 microg of estradiol; fmol equivalents per 100 mg", "format": "ADME, organism-based", "conditions": "in vivo"}, "Rattus norvegicus [21]": {"tested_on": "Rattus norvegicus", "assay": "Distribution of radiolabeled compound in plasma of rat 4 hr after ip administration of dose; fmol equivalents per 100 mg", "format": "ADME, organism-based", "conditions": "in vivo"}, "Rattus norvegicus [22]": {"species_on_record": "Rattus norvegicus", "assay": "Relative recovery of 3H associated with compound from rat plasma", "format": "ADME, organism-based"}, "Rattus norvegicus [23]": {"species_on_record": "Rattus norvegicus", "assay": "Effect of Beta Glucuronidase on recovery of 3H associated with compound from rat uterus", "format": "ADME, organism-based", "conditions": "in vivo"}, "Rattus norvegicus [24]": {"tested_on": "Rattus norvegicus", "assay": "Distribution of radiolabeled compound in intestinal contents of rat 8 hr after ip administration of dose; fmol equivalents per 100 mg", "format": "ADME, organism-based", "conditions": "in vivo"}, "Rattus norvegicus [25]": {"species_on_record": "Rattus norvegicus", "assay": "Relative recovery of 3H associated with compound from rat Intestinal contents", "format": "ADME, organism-based", "conditions": "in vivo"}, "Rattus norvegicus [26]": {"tested_on": "Rattus norvegicus", "assay": "Distribution of radiolabeled compound in plasma of rat 1 hr after iv administration of dose; fmol equivalents per 100 mg", "format": "ADME, organism-based", "conditions": "in vivo"}, "Rattus norvegicus [27]": {"tested_on": "Rattus norvegicus", "assay": "Distribution of radiolabeled compound in liver of rat 4 hr after ip administration of dose; fmol equivalents per 100 mg", "format": "ADME, organism-based", "conditions": "in vivo"}, "Rattus norvegicus [28]": {"tested_on": "Rattus norvegicus", "assay": "Distribution of radiolabeled compound in liver of rat 1 hr after ip administration of dose and excess 8 microg of estradiol; fmol equivalents per 100 mg", "format": "ADME, organism-based", "conditions": "in vivo"}, "Rattus norvegicus [29]": {"tested_on": "Rattus norvegicus", "assay": "Distribution of radiolabeled compound in uterus of rat 8 hr after ip administration of dose; fmol equivalents per 100 mg", "format": "ADME, organism-based", "conditions": "in vivo"}, "Rattus norvegicus [30]": {"tested_on": "Rattus norvegicus", "assay": "Distribution of radiolabeled compound in uterus of rat 1 hr after ip administration of dose; fmol equivalents per 100 mg", "format": "ADME, organism-based", "conditions": "in vivo"}, "Rattus norvegicus [31]": {"tested_on": "Rattus norvegicus", "assay": "Distribution of radiolabeled compound in uterus of rat 1 hr after iv administration of dose; fmol equivalents per 100 mg", "format": "ADME, organism-based", "conditions": "in vivo"}, "Rattus norvegicus [32]": {"tested_on": "Rattus norvegicus", "assay": "Distribution of radiolabeled compound in intestinal contents of rat 4 hr after ip administration of dose; fmol equivalents per 100 mg", "format": "ADME, organism-based", "conditions": "in vivo"}, "Rattus norvegicus [33]": {"species_on_record": "Rattus norvegicus", "assay": "Relative recovery of 3H associated with compound from rat uterus", "format": "ADME, organism-based", "conditions": "in vivo"}, "Rattus norvegicus [34]": {"tested_on": "Rattus norvegicus", "assay": "Distribution of radiolabeled compound in plasma of rat 8 hr after ip administration of dose; fmol equivalents per 100 mg", "format": "ADME, organism-based", "conditions": "in vivo"}, "Rattus norvegicus [35]": {"tested_on": "Rattus norvegicus", "assay": "Distribution of radiolabeled compound in liver of rat 1 hr after iv administration of dose; fmol equivalents per 100 mg", "format": "ADME, organism-based", "conditions": "in vivo"}, "Rattus norvegicus [36]": {"tested_on": "Rattus norvegicus", "assay": "Distribution of radiolabeled compound in liver of rat 1 hr after ip administration of dose; fmol equivalents per 100 mg", "format": "ADME, organism-based", "conditions": "in vivo"}}}
{"smiles": "CCC(=C(c1ccc(O)cc1)c1ccc(OCCN(C)C)cc1)c1ccccc1", "values": [{"measurement": "S/N", "setting": "[1]", "result": 2.3}, {"measurement": "Binding", "setting": "[2]", "result": 475, "unit": "fM uterus-1"}, {"measurement": "Binding", "setting": "[3]", "result": 1080, "unit": "fM uterus-1"}, {"measurement": "EC50", "setting": "Estrogen receptor [4]", "result": 6, "unit": "nM"}]}
{"smiles": "Oc1ccc(C(=Cc2ccc(F)cc2)c2ccc(O)cc2)cc1", "values": [{"measurement": "Distribution", "setting": "Rattus norvegicus [5]", "result": 61, "unit": "fM/mg"}, {"measurement": "Distribution", "setting": "Rattus norvegicus [6]", "result": 196, "unit": "fM/mg"}, {"measurement": "Recovery", "setting": "Rattus norvegicus [7]", "result": 95.4, "unit": "%"}, {"measurement": "Distribution", "setting": "Rattus norvegicus [8]", "result": 302, "unit": "fM/mg"}, {"measurement": "Recovery", "setting": "Rattus norvegicus [9]", "result": 92.1, "unit": "%"}, {"measurement": "Binding", "setting": "[10]", "result": 305, "unit": "fM uterus-1"}, {"measurement": "Distribution", "setting": "Rattus norvegicus [11]", "result": 880, "unit": "fM/mg"}, {"measurement": "Recovery", "setting": "Rattus norvegicus [12]", "result": 75.9, "unit": "%"}, {"measurement": "EC50", "setting": "Estrogen receptor [13]", "result": 2.9, "unit": "nM"}, {"measurement": "S/N", "setting": "[14]", "result": 3.2}, {"measurement": "Distribution", "setting": "Rattus norvegicus [15]", "result": 2360, "unit": "fM/mg"}, {"measurement": "Distribution", "setting": "Rattus norvegicus [16]", "result": 122, "unit": "fM/mg"}, {"measurement": "Recovery", "setting": "Rattus norvegicus [17]", "result": 15.7, "unit": "%"}, {"measurement": "Distribution", "setting": "Rattus norvegicus [18]", "result": 3269, "unit": "fM/mg"}, {"measurement": "Binding", "setting": "[19]", "result": 971, "unit": "fM uterus-1"}, {"measurement": "Distribution", "setting": "Rattus norvegicus [20]", "result": 198, "unit": "fM/mg"}, {"measurement": "Distribution", "setting": "Rattus norvegicus [21]", "result": 56, "unit": "fM/mg"}, {"measurement": "Recovery", "setting": "Rattus norvegicus [22]", "result": 28.7, "unit": "%"}, {"measurement": "Recovery", "setting": "Rattus norvegicus [23]", "result": 95.9, "unit": "%"}, {"measurement": "Distribution", "setting": "Rattus norvegicus [24]", "result": 665, "unit": "fM/mg"}, {"measurement": "Recovery", "setting": "Rattus norvegicus [25]", "result": 5.3, "unit": "%"}, {"measurement": "Distribution", "setting": "Rattus norvegicus [26]", "result": 144, "unit": "fM/mg"}, {"measurement": "Distribution", "setting": "Rattus norvegicus [27]", "result": 97, "unit": "fM/mg"}, {"measurement": "Distribution", "setting": "Rattus norvegicus [28]", "result": 373, "unit": "fM/mg"}, {"measurement": "Distribution", "setting": "Rattus norvegicus [29]", "result": 87, "unit": "fM/mg"}, {"measurement": "Distribution", "setting": "Rattus norvegicus [30]", "result": 496, "unit": "fM/mg"}, {"measurement": "Distribution", "setting": "Rattus norvegicus [31]", "result": 429, "unit": "fM/mg"}, {"measurement": "Distribution", "setting": "Rattus norvegicus [32]", "result": 834, "unit": "fM/mg"}, {"measurement": "Recovery", "setting": "Rattus norvegicus [33]", "result": 84.5, "unit": "%"}, {"measurement": "Distribution", "setting": "Rattus norvegicus [34]", "result": 46, "unit": "fM/mg"}, {"measurement": "Distribution", "setting": "Rattus norvegicus [35]", "result": 318, "unit": "fM/mg"}, {"measurement": "Distribution", "setting": "Rattus norvegicus [36]", "result": 251, "unit": "fM/mg"}, {"measurement": "EC50", "setting": "Estrogen receptor [4]", "result": 170, "unit": "nM"}]}
{"smiles": "Oc1ccc(C(=Cc2ccc(Br)cc2)c2ccc(O)cc2)cc1", "values": [{"measurement": "EC50", "setting": "Estrogen receptor [13]", "result": 10.4, "unit": "nM"}]}
{"smiles": "Oc1ccc(C(=Cc2ccccc2)c2ccc(O)cc2)cc1", "values": [{"measurement": "EC50", "setting": "Estrogen receptor [13]", "result": 3.2, "unit": "nM"}]}
{"smiles": "Oc1ccc(C(=Cc2ccc(I)cc2)c2ccc(O)cc2)cc1", "values": [{"measurement": "EC50", "setting": "Estrogen receptor [13]", "result": 3.3, "unit": "nM"}, {"measurement": "EC50", "setting": "Estrogen receptor [4]", "result": 9.5, "unit": "nM"}]}
{"smiles": "Oc1ccc(C(=C(Cl)c2ccccc2)c2ccc(O)cc2)cc1", "values": [{"measurement": "EC50", "setting": "Estrogen receptor [13]", "result": 4.5, "unit": "nM"}]}
